Data reported in patent publication US4017611A, “Control of insects with 3-hydroxymethacrylic acid methyl ester dimethylthionophosphate” (priority 1970, dated 1977).
Like-named read-outs stand apart in the source and are kept apart here.

Assays:
[1] = Acute oral toxicity (warm blooded toxicity) in rats; conditions: rat, in vivo, po
rats = assay: as above; conditions: orally, rats
adult houseflies = assay: Gas action against adult houseflies; type: in vivo, Musca domestica (housefly); conditions: 10 mg active substance, 2 liter glass cylinder
Procedure: Using a pipette 10 mg of active substance were placed on a watch glass which was then covered with a wire mesh and placed in a 2 liter glass cylinder. Immediately thereafter 30 houseflies were introduced into the container which was then sealed.
A comparative test between compound 1 and PHOSDRIN (Registered Trade Mark) carried out according to this method gave the following mortality periods in minutes for 10%, 50% and 100% kill of the test animals.

[2] = test system: one day old houseflies (Musca domestica); assay: Ingestion test with one day old houseflies; type: in vivo; conditions: read-out: % flies killed; for mortality at 0.4 ppm: 0.4 ppm in 30% sugar water; for mortality at 0.8 ppm: 0.8 ppm in 30% sugar water; for mortality at 1.5 ppm: 1.5 ppm in 30% sugar water; for mortality at 3 ppm: 3 ppm in 30% sugar water; for mortality at 6 ppm: 6 ppm in 30% sugar water; for mortality at 12 ppm: 12 ppm in 30% sugar water; for mortality at 25 ppm: 25 ppm in 30% sugar water; for mortality at 50 ppm: 50 ppm in 30% sugar water; for mortality at 100 ppm: 100 ppm in 30% sugar water
Procedure: Dilution series were manufactured with water. As solvent for the test preparations and similarly as a nutrition agent for the flies, 30% sugar water was used which had been coloured with chlorantin light red (as an attractant). The dilutions were tested with one day old houseflies. The 1, 2 and 4 hour controls enabled the speed of action to be determined. By means of the 24 hour control the limit concentration (action strength) could also be determined.

SMILES: COC(=O)C=C(C)OP(=O)(OC)OC [Phosdrin, reference compound]
- LD50 [1]: 3 to 7 mg/kg
- warm blooded toxicity LD50 (rats): 3-7 mg/kg body weight
- Mortality time for 10% of the houseflies (adult houseflies; 10% kill): 22 min
- Mortality time for 50% of the houseflies (adult houseflies; 50% kill): 25 min
- Mortality time for 100% of the houseflies (adult houseflies; 100% kill): 30 min
- mortality at 0.4 ppm ([2]; 1 hour): 0%
- mortality at 0.4 ppm ([2]; 2 hours): 0%
- mortality at 0.4 ppm ([2]; 4 hours): 0%
- mortality at 0.4 ppm ([2]; 24 hours): 0%
- mortality at 0.8 ppm ([2]; 1 hour): 0%
- mortality at 0.8 ppm ([2]; 2 hours): 0%
- mortality at 0.8 ppm ([2]; 4 hours): 0%
- mortality at 0.8 ppm ([2]; 24 hours): 0%
- mortality at 1.5 ppm ([2]; 1 hour): 0%
- mortality at 1.5 ppm ([2]; 2 hours): 0%
- mortality at 1.5 ppm ([2]; 4 hours): 0%
- mortality at 1.5 ppm ([2]; 24 hours): 0%
- mortality at 3 ppm ([2]; 1 hour): 0%
- mortality at 3 ppm ([2]; 2 hours): 0%
- mortality at 3 ppm ([2]; 4 hours): 0%
- mortality at 3 ppm ([2]; 24 hours): 20%
- mortality at 6 ppm ([2]; 1 hour): 0%
- mortality at 6 ppm ([2]; 2 hours): 0%
- mortality at 6 ppm ([2]; 4 hours): 10%
- mortality at 6 ppm ([2]; 24 hours): 80%
- mortality at 12 ppm ([2]; 1 hour): 0%
- mortality at 12 ppm ([2]; 2 hours): 0%
- mortality at 12 ppm ([2]; 4 hours): 20%
- mortality at 12 ppm ([2]; 24 hours): 90%
- mortality at 25 ppm ([2]; 1 hour): 20%
- mortality at 25 ppm ([2]; 2 hours): 40%
- mortality at 25 ppm ([2]; 4 hours): 60%
- mortality at 25 ppm ([2]; 24 hours): 100%
- mortality at 50 ppm ([2]; 1 hour): 30%
- mortality at 50 ppm ([2]; 2 hours): 70%
- mortality at 50 ppm ([2]; 4 hours): 80%
- mortality at 50 ppm ([2]; 24 hours): 100%
- mortality at 100 ppm ([2]; 1 hour): 100%
- mortality at 100 ppm ([2]; 2 hours): 100%
- mortality at 100 ppm ([2]; 4 hours): 100%
- mortality at 100 ppm ([2]; 24 hours): 100%
